In patent US6214801A, “Imidazo[1,2-a]pyridine C-nucleosides as antiviral agents” (The Regents of the University of Michigan, priority 1999, dated 2001) one finds CC50 and IC50 data, which are given here for 13 compounds.

A short description of data set [1]: Growth cytotoxicity in KB cells (crystal violet staining). Format: cell-based. The settings on record: human, two population doubling times, read-out: 50% Inhibitory Concentration IC50, Cytotoxicity, Growth (KB cells). The method, then:
(§1) KB cells (available from the American Type Culture Collection (ATCC) 12301 Parklawn Drive, […], Md. 20852 (ATCC CCL 17)), an established human cell line derived from an epidermal oral carcinoma, were grown in minimal essential medium (MEM) (Sigma) with Hanks salts (MEM(H)) supplemented with 5% fetal calf serum. Human foreskin fibroblasts (HFF cells) (provided by the University of Michigan Hospital) and African green monkey kidney cells (BSC-1) (ATTC CCL 26) cells were grown in MEM with Earl salts (MEM(E)) supplemented with 10% fetal bovine serum. Cells were passaged according to conventional procedures and as described in Shipman, C., Jr. et al. (1976) Antimicrob. Agents Chemother. Vol. 9:120 and incorporated herein by reference. Briefly, cells were passaged at 1:2 to 1:10 dilutions according to conventional procedures by using 0.05% trypsin plus 0.02% EDTA in a HEPES buffered salt solution. HFF cells were passaged onlv at 1:2 dilutions.
(§2) Two different methods were used to evaluate cytotoxicity of the compounds. First, cytotoxicity produced in stationary HFF cells was determined by microscopical examination of cells not affected by the virus used in the plaque assay. Second the effect of compounds on KB cells during two population doubling times was determined by crystal violet staining and spectrophotometric quantitation of dye eluted from stained cells. This method has been utilized for the analysis of ganciclovir and zidovudine (See Prichard, M. N. et al. Antiviral Res. (1991) Vol. 35:1060-1065).

For data set [2], the system named is HSV-1. Description: HSV-1 ELISA assay. The class given is cell-based, herpes simplex virus type 1, KOS strain. The settings on record: Human alphaherpesvirus 1; read-out: 50% Inhibitory Concentration IC50, Antiviral Activity, HSV-1 (ELISA assay). The method, then: as §1
(§3) A plaque purified isolate, Po, of the Towne strain of HCMV was used in all experiments and was a gift of Dr. Mark Stinski, University of Iowa. The KOS strain of HSV-1 was used and was provided by Dr. Sandra K. Weller, University of Connecticut. Stock preparations of HCMV and HSV-1 were prepared and titered as known to those of skill and the art and described in Turk, S. R. et al. (1987) Antimicrob. Agents Chemother. Vol. 31:544-550 and Shipman, C., Jr., et al. (1990) J. Virol. Methods Vol. 28:101-106, each incorporated herein by reference.
Briefly, high titer HSV-1 stocks were prepared as follows. Nearly confluent monolayer cultures of KB cells were grown in 32 oz. glass bottles containing MEM(E) buffered with 25 mM HEPES and supplemented with 5% fetal bovine serum and 0.127 giliter L-arginine (VGM, virus growth medium). The cultures were infected at a low input multiplicity to reduce the formation of defective virus. After cell cytopathology reached "three to four plus", the cells were harvested by vigorous shaking, and concentrated by centrifugation (800×g for 5 min.). The resulting virus pools were stored at -760C until retrieved for use in experiments.
HSV-1 was titered using monolayer cultures of BSC-1 cells. Cells were planted at 3×10^5 cells/well using 6-well cluster dishes. MEM(E) supplemented with 10% fetal bovine serum was employed as medium. After 22-24 h, cells were 90% confluent and were inoculated in triplicate using at least three ten-fold dilutions with 0.2 ml of the virus suspension to be assayed and incubated in a humidified 4% CO2 -[…] atmosphere for one hour to permit viral adsorption. Following virus adsorption, the cell sheet was overlayed with 5 ml of MEM(E) with 5% serum plus 0.5% methocel (4000 CPS) and incubated an additional two to three days. Cells were fixed and stained with 0.1% crystal violet in 20% methanol and macroscopic plaques enumerated.
(§4) HCMV plaque reduction experiments were performed with monolayer cultures of HFF cells by a procedure similar to that referenced above for titration of the viruses and described in Devivar, R. V. et al. (1994) J. Med. Chem. Vol. 37:2942-2949. Activity of compounds against HSV-1 was evaluated using an ELISA assay.
ELISA techniques according to standard procedures were also used to determine activity against HSV-1. Drug effects were calculated as a percentage of the reduction in virus titers in the presence of each drug concentration compared to the titer obtained in the absence of drug. Ganciclovir was used as a positive control in all experiments.
Background: In an ELISA, binding on a coated surface is turned into a signal by an enzyme label.

Data set [3] deals with HCMV. Description: HCMV plaque (focus) reduction assay in HFF cells. The class given is cell-based. As to conditions: Human betaherpesvirus 5; HFF cells, 7 to 10 days; read-out: 50% Inhibitory Concentration IC50, Antiviral Activity, HCMV (plaque assay in HFF cells). The method, then: as §1, §3
Stock HCMV was prepared by infecting HFF cells at a multiplicity of infection (m.o.i.) of less that 0.01 plaque-forming units (p.f.u.) per cell. Cell growth medium was changed every four days until cytopathology was evident in all cells (approximately 21 days). Supernatant fluids were retained as the virus stock. Four days later, the remaining cells were disrupted by three cycles of freeze-thawing and the cell plus medium held as an additional source of virus. Storage was in liquid nitrogen.
HCMV was titered in 24-well cluster dishes which were plated to contain 5×10^4 HFF cells/well, grown as described above. When the cells were 70 to 80% confluent, 0.2 ml of the virus suspension was added per well and adsorbed as described above. At least three ten-fold dilutions of each preparation were used. Following virus adsorption, the cell sheets were overlayed with 0.5% methocel (4000 CPS) in maintenance medium [MEM(E) with 1.1 g/liter NaHCO3, 100 units/ml penicillin G, 100 μg/ml streptomycin, and 5% fetal bovine serum]. The cultures were incubated in a humidified atmosphere of 4% CO2 -96% air. Viral plaques were visible 5 to 7 days after infection using at least 10-fold magnification. Cells were fixed and stained by a 10-minute exposure to a 0.1% solution of crystal violet in 20% methanol 7 to 12 days after infection. Microscopic foci were enumerated at 20-fold magnification using a Nikon Profile Projector.
as §4
The effect of compounds of the replication of HCMV was measured using a plaque (focus) reduction assay. For the former, HFF cells in 24-well culture dishes were infected with approximately 50 p.f.u. of HCMV per well using the procedures detailed above. Compounds dissolved in growth medium were added in four to six selected concentrations to duplicate wells following virus adsorption. Following incubation at 37 °C for 7 to 10 days, cell sheets were fixed, stained and microscopic plaques were enumerated as described above. Drug effects were calculated as a percentage of reduction in number of plaques in the presence of each drug concentration compared to the number observed in the absence of drug. […]

Data set [4] can be described thus: in vitro. The settings on record: human, hff cells. Format: cell-based, human. The method, then:
as §1, §2

Consider `Clc1cn2cc(Cl)c(Cl)cc2n1` [Compound 16, 2,6,7-Trichloro-imidazo[1,2-a]pyridine], for which the CC50 in data set [1] and in data set [4] was over 100 µM in each case. For the same compound, the IC50 in data set [2] and in data set [3] was over 100 µM in each case.
Turning to `OC[C@H]1O[C@@H](c2c(Cl)c(Cl)cc3nc(Cl)cn23)[C@H](O)[C@@H]1O` [Compound 42, 2,6,7-Trichloro-5-(β-D-ribofuranosyl)imidazo[1,2-a]pyridine], the CC50 in data set [1] and in data set [4] was over 100 µM throughout. For the same compound, the IC50 in data set [2] and in data set [3] was over 100 µM each time.
As to `OC[C@H]1O[C@H](c2c(Cl)c(Cl)cc3nc(Cl)cn23)[C@H](O)[C@@H]1O` [Compound 43, 2,6,7-Trichloro-5-(α-D-ribofuranosyl)imidazo[1,2-a]pyridine], the CC50 in data set [1] and in data set [4] was over 100 µM in each case. Also, the IC50 in data set [2] and in data set [3] was over 100 µM in each case.
For the compound `Nc1nc(O)c2ncn(COC(CO)CO)c2n1` [DHPG, ganciclovir, reference compound], the IC50 in data set [3] is 7.4 µM. For the same compound, the CC50 in data set [4] was over 100 µM.
Consider `O[C@@H]1[C@H](O)CO[C@H]1c1c(Cl)nc2cc(Cl)c(Cl)cn12` [Compound -28, 2,6,7-Trichloro-3-(β-D-erythrofuranosyl)imidazo[1,2-a]pyridine], for which the CC50 in data set [1] and in data set [4] was over 100 µM in each case. Also, the IC50 in data set [2] and in data set [3] was over 100 µM throughout.
With `O[C@H]1[C@@H](O)CO[C@H]1c1c(Cl)nc2cc(Cl)c(Cl)cn12` [Compound -29, 2,6,7-dichloro-3-(α-L-erythrofuranosyl)imidazo[1,2-α]pyridine], the CC50 in data set [1] and in data set [4] was over 100 µM in each case. Further, the IC50 in data set [2] is over 100 µM; in data set [3], 17 µM.
Take `O[C@@H]1[C@@H](c2c(Cl)nc3cc(Cl)c(Cl)cn23)OC[C@@H]1O` [Compound +28, 2,6,7-Trichloro-3-(β-L-erythrofuranosyl)imidazo[1,2-a]pyridine]: the CC50 in data set [1] and in data set [4] was over 100 µM each time. Besides, the IC50 in data set [2] and in data set [3] was over 100 µM throughout.
Consider `OC[C@H]1O[C@@H](c2c(Cl)ccc3nc(Cl)cn23)[C@H](O)[C@@H]1O` [Compound 36, 2,6-Dichloro-5-(β-D-ribofuranosyl)imidazo[1,2-a]pyridine], for which the CC50 in data set [1] and in data set [4] was over 100 µM throughout. The IC50 in data set [2] and in data set [3] was over 100 µM each time.
As for `Clc1ccc2nc(Cl)cn2c1` [Compound 12, 2,6-Dichloro-imidazo[1,2-a]pyridine], the CC50 in data set [1] and in data set [4] was over 100 µM each time. The IC50 in data set [2] and in data set [3] was over 100 µM each time.
`OC[C@H]1O[C@H](c2c(Cl)ccc3nc(Cl)cn23)[C@H](O)[C@@H]1O` [Compound 38, 2,6-Dichloro-5-(α-D-ribofuranosyl)imidazo[1,2-a]pyridine]: the CC50 in data set [1] and in data set [4] was over 100 µM throughout. Also, the IC50 in data set [2] and in data set [3] was over 100 µM each time.
As for `Clc1cn2cc(Cl)c(Cl)c(Cl)c2n1` [Compound 18, 2,6,7,8-Tetrachloro-imidazo[1,2-a]pyridine], the CC50 in data set [1] and in data set [4] was over 100 µM throughout. Besides, the IC50 in data set [2] and in data set [3] was over 100 µM throughout.
Regarding `OC[C@H]1O[C@@H](c2cccc3nccn23)[C@H](O)[C@@H]1O` [Compound 45, 5-(β-D-Ribofuranosyl)imidazo[1,2-a]pyridine], the CC50 in data set [1] and in data set [4] was over 100 µM throughout. Further, the IC50 in data set [2] and in data set [3] was over 100 µM in each case.
On to `Clc1ccn2cc(Cl)nc2c1` [Compound 15, 2,7-Dichloro-imidazo[1,2-a] pyridine], for which the CC50 in data set [1] and in data set [4] was over 100 µM in each case. Besides, the IC50 in data set [2] and in data set [3] was over 100 µM throughout.
